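Briefly, cells in 96-well plates were exposed to five compound concentrations for 48 h, and endpoints were estimated by linear interpolation. GI50: concentration for 50% inhibition of growth. The concentration for full growth arrest is given as TGI.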

This passage reports TGI and GI50 results from PubChem BioAssay (NCI).

What all share (experiment): NCI anticancer screen, dose series, 48 h
In assay [1] the test system is BT-549 breast.
The test system of assay [2] is SK-OV-3 ovarian.
Assay [3] has as its system A498 renal.
Assay [4] concerns HCT-15 colon.
Assay [5] relates to SW-620 colon.
For assay [6], the system named is K-562 leukemia.
In assay [7] the test system is UACC-257 melanoma.
For assay [8], the system named is SN12C renal.
The subject of assay [9] is SK-MEL-5 melanoma.
The test system of assay [10] is HL-60(TB) leukemia.
Assay [11] relates to SR leukemia.

`Nn1c(CNc2ccc(-c3nnc(Nc4ccc(Cl)cc4)n3N)cc2)nnc1Nc1ccc(Cl)cc1`: the TGI in [1], in [2], in assay [3], in assay [4], in [5] and in [6] was over 100 µM in each case. Further, the TGI in assay [7], in [8] and in assay [9] was over 100 µM throughout.
For the molecule `COc1ccc(-c2cc(-c3ccccc3)n(C3OC(COC(C)=O)C(OC(C)=O)C(OC(C)=O)C3OC(C)=O)c(=S)c2C#N)cc1` (stereo not given), the TGI in [1] is 34.9 µM; in [10], 13.4 µM; in assay [2] it was 32.9 µM; in [4], over 100 µM; in assay [5] it was over 100 µM; in assay [6], over 100 µM. For the same molecule, the TGI in assay [9] was determined as 19.4 µM; in [11], 37.5 µM.
As to `COc1cc(/C=C2\C(=O)N(c3cccc(Cl)c3)C(c3ccccc3)S2(=O)=O)cc(OC)c1OC` (stereo not given), the TGI in assay [1], in assay [10], in assay [2], in assay [3], in [4] and in assay [5] was over 100 µM each time. Also, the TGI in assay [6], in assay [7], in assay [8] and in assay [9] was over 100 µM each time.
In the case of `O=C(N=Nc1ccc([N+](=O)[O-])cc1)NNc1ccc([N+](=O)[O-])cc1`, the TGI in [1] was over 100 µM; in assay [10] it was 46.9 µM; in assay [3], 26.6 µM; in assay [4], 62.8 µM; in [5] it was 45.4 µM; in assay [6] it was 45.8 µM. Moreover, the TGI in assay [7] was 67.5 µM; in [8], 40.5 µM; in [9], 31.2 µM; in assay [11] it was 72.6 µM.
In the case of `c1ccc(Cc2cccc3cc(-c4ccc(-c5ccccc5)cc4)[nH]c23)cc1`, the TGI in [1], in assay [10], in assay [2], in [4], in [5] and in assay [7] was over 100 µM each time. Also, the TGI is over 100 µM in [8], over 100 µM in [9] and 47 µM in [11].
As to `Clc1cc2nc(C3CCCO3)[nH]c2cc1Cl` (stereo not given), the TGI in assay [1] was 91.3 µM; in assay [10] it was over 100 µM; in assay [2], over 100 µM; in assay [4] it was over 100 µM; in [5] it was over 100 µM; in assay [6], over 100 µM. In addition, the TGI in [7], in [8], in assay [9] and in assay [11] was over 100 µM in each case.
As for `Cc1cccc2c1Oc1cc(Cl)ccc1C2NC(=O)CCN1CCCCC1` (stereo not given), the TGI came out at 33.4 µM in [1]; 38.3 µM in assay [10]; 32.7 µM in assay [4]; 34.9 µM in assay [5]; 32 µM in assay [6]; 30.5 µM in [7]. The TGI in [8] turned out to be 33 µM; in assay [9], 30 µM; in assay [11], 35 µM.
Regarding `ON=C1CCCCC(=NO)CCCC1`, the TGI in assay [1], in [2], in [3], in assay [4], in assay [5] and in [6] was over 100 µM in each case. The TGI in assay [7], in [8] and in assay [9] was over 100 µM each time.
As to `COc1cc(N=C(N)N=C(N)N)c2ncccc2c1`, the TGI in assay [1], in [2], in assay [3], in assay [4], in [5] and in assay [7] was over 100 µM each time. For the same molecule, the TGI in assay [8] and in [9] was over 100 µM each time.
`C/C(CC(O)(C(F)(F)F)C(F)(F)F)=N\N`: the TGI in [1], in assay [10], in assay [2], in [3], in assay [4] and in [5] was over 10 µM each time. The TGI in assay [6], in assay [7], in assay [8] and in [9] was over 10 µM each time.
With `CN1CCc2c(sc3nc(Nc4ccccc4)n(N)c(=O)c23)C1`, the TGI in assay [1], in assay [10], in [3], in [4], in assay [6] and in [7] was over 100 µM throughout. For the same molecule, the TGI in assay [8] and in assay [9] was over 100 µM in each case.
Consider `C=CCCCCOC1C=CC(OC(C)=O)C(COC(C)=O)O1` (stereo not given), for which the TGI in [1], in assay [10], in assay [2], in [3], in [4] and in [5] was over 100 µM throughout. Besides, the TGI in [7], in assay [8] and in assay [9] was over 100 µM in each case.
For the molecule `C=C1C(=O)OC2/C=C(\C)CC/C=C(/C)CC(OC(=O)/C(=C/CO)CO)C12` (stereo not given), the TGI is 30.9 µM in assay [1]; 20.7 µM in [10]; over 100 µM in [2]; 37.7 µM in [4]; 63.1 µM in assay [5]; over 100 µM in assay [6]. In addition, the results for the TGI in [7], in assay [9] and in assay [11] were 36.3 µM, 31.2 µM and over 100 µM, respectively.
With `O=C(CC(=O)c1ccncc1)c1ccccc1`, the TGI in assay [1], in assay [2], in assay [3], in [4], in assay [5] and in assay [6] was over 100 µM each time. Also, the TGI in assay [7] is over 100 µM; in [8], over 62.5 µM; in assay [9], over 100 µM; in assay [11] it was over 100 µM.
For the molecule `O=C1CCc2c3c(c4c([nH]c5ccccc54)c2CC1)C(=O)NC3=O`, the TGI in assay [1] was 28.2 µM; in assay [10] it was 17.2 µM; in assay [3] it was 13.5 µM; in assay [4], over 100 µM; in assay [5] it was over 100 µM; in [6] it was over 100 µM. Besides, the TGI was 19.5 µM in assay [7], over 100 µM in assay [8] and 5.77 µM in assay [9].
With `COC1/C=C/C(C)C(OC)CC(O)/C=C/C(C)C(C(C)C(OC)C(C)CCC(=O)C(C)C(C/C=C/N(C)C=O)OC)OC(=O)/C=C/C=C(\C)CC(OC)C(OC)C2=CC(=O)O[C@@H](C(C)C(OC)C1)[C@H]2O` (stereo not given in full), the TGI in [1] is 0.163 µM; in assay [10], over 25 µM; in [2], 0.104 µM; in assay [3], 0.0614 µM; in [7], 0.105 µM; in assay [8] it was over 25 µM. Moreover, the TGI in assay [9] was 0.0763 µM; in assay [11], over 25 µM.
In the case of `CC(=O)OCC1C(C(C)OC(C)=O)CCC2C1CCC1(C)C(OC(C)=O)CCC21` (stereo not given), the TGI in [1] worked out at 24.5 µM; in [10] it was 52.6 µM; in assay [3] it was 41.4 µM; in assay [4] it was 36.5 µM; in assay [5], 38.2 µM; in assay [6], 36.8 µM. In addition, the TGI in assay [7] is 31.9 µM; in [8] it was 34.8 µM; in assay [9], 30.6 µM; in [11], over 100 µM.
Consider `NC(=O)c1cnc2sc3ccccc3n2c1=O`, for which the TGI in assay [1], in [10], in assay [2], in assay [4], in assay [5] and in assay [6] was over 100 µM each time. The TGI in assay [7], in assay [8], in [9] and in assay [11] was over 100 µM in each case.
In the case of `CC1=C(C)C(=O)OC(C(C)(O)C2(O)CCC3(O)C4CC(Cl)C5(O)C(O)C=CC(=O)C5(C)C4CCC32C)C1` (stereo not given), the TGI in [1] was over 100 µM; in assay [10], 9.04 µM; in [2], over 100 µM; in [3], over 100 µM; in assay [4], over 100 µM; in [5], 59.1 µM. Also, the TGI in assay [6] is over 100 µM; in assay [7] it was over 100 µM; in assay [8], over 100 µM; in assay [11] it was 37.1 µM.
With `CCN(CC)CCN1C(=O)c2cccc3c(-c4ccc5c(c4)ncn5C4CCCCC4)ccc(c23)C1=O`, the GI50 in [1] was 0.922 µM; in assay [10], 1.95 µM; in assay [2] it was 1.97 µM; in assay [3] it was 1.65 µM; in assay [6], 0.476 µM; in assay [7], 2.23 µM. The GI50 in assay [8] is 1.27 µM; in assay [9] it was 1.32 µM; in assay [11], 0.414 µM. In addition, the TGI was determined as 2.3 µM in assay [1]; 4.61 µM in assay [10]; 4.18 µM in assay [2]; 3.22 µM in [3]; 3.97 µM in [6]; 3.74 µM in assay [7]. Further, the values for the TGI in assay [8], in assay [9] and in assay [11] were 2.78 µM, 2.61 µM and 2.06 µM, respectively.
For the molecule `C1CNCCN2CCCNCCN(C1)CC2`, the TGI in assay [1], in [2], in [3], in assay [4], in assay [5] and in assay [7] was over 100 µM each time. The TGI in [8], in [9] and in assay [11] was over 100 µM throughout.
For `O=C(N/N=C(/COc1cccc(Cl)c1)N=Cc1ccncc1)c1ccncc1`, the TGI in [1], in assay [10], in [2], in assay [3], in assay [4] and in assay [5] was over 100 µM each time. Besides, the TGI in [6], in [7] and in assay [8] was over 100 µM each time.
For the molecule `COc1ccc(/C=C2/C(=O)N(C(=O)c3ccccc3O)N=C2C)cc1OC`, the TGI in assay [1] was over 100 µM; in [10] it was over 33.6 µM; in assay [2] it was over 100 µM; in assay [4], over 100 µM; in assay [5] it was over 100 µM; in [6], over 100 µM. In addition, the TGI in assay [7] was over 100 µM; in [8] it was over 50.7 µM; in [9], 24.6 µM; in [11] it was over 100 µM.
On to `CCCCCCc1nn2c(-c3ccc(C)cc3)nnc2s1`, for which the TGI in [1], in assay [2], in assay [3], in assay [4], in assay [5] and in [6] was over 100 µM each time. Besides, the TGI in [7], in [8] and in [9] was over 100 µM in each case.
Regarding `COC(=O)C12CCC(C(=O)OC)(Cc3c(c4ccccc4n3S(=O)(=O)c3ccccc3)C1)C2=O` (stereo not given), the TGI in assay [1], in assay [2], in assay [3], in [4], in [5] and in assay [6] was over 100 µM throughout. The TGI in assay [7], in assay [8], in assay [9] and in assay [11] was over 100 µM in each case.
Turning to `O=C1C(NS(=O)(=O)c2ccccc2)=C(n2cnc3ccccc32)C(=O)c2ccccc21`, the TGI in [1], in assay [10], in [2], in assay [4], in assay [5] and in [6] was over 100 µM throughout. Also, the TGI in assay [7], in assay [8], in [9] and in [11] was over 100 µM throughout.
On to `CS(C)(=O)=N/C=C\C(=O)C(Cl)(Cl)Cl`, for which the TGI in assay [1], in assay [10], in assay [2], in assay [4], in assay [5] and in [6] was over 100 µM throughout. Further, the TGI in [7], in assay [8], in [9] and in assay [11] was over 100 µM each time.
